Experimental data reported in PubChem BioAssay AID588407 (The Scripps Research Institute Molecular Screening Center, 2011).
The source made the active and inactive calls. The rule behind the calls is not given here.

Each molecule was assayed against Mu-type opioid receptor (Homo sapiens) + Delta-type opioid receptor (Homo sapiens) (UniProt P35372+P41143) (assay: agonists of MOR-DOR heterodimerization, dose response, cell-based, luminescence (AID 588407;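 note: potency of agonists raising the heterodimer signal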)). Conditions: cells.
Mu-type opioid receptor (Homo sapiens) + Delta-type opioid receptor (Homo sapiens), sequence (P35372 whole entry, looked up): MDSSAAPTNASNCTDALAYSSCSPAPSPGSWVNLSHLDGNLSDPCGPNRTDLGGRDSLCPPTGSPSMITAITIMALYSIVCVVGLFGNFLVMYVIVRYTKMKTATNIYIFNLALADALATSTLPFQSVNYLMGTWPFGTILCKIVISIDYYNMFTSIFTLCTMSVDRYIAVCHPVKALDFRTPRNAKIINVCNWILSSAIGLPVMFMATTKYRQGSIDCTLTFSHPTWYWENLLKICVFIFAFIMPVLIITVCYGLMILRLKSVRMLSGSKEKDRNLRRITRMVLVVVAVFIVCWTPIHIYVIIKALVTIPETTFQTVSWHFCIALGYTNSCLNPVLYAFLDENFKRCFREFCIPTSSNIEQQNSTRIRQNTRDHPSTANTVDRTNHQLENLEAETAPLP
Mu-type opioid receptor (Homo sapiens) + Delta-type opioid receptor (Homo sapiens), sequence (P41143 whole entry, looked up): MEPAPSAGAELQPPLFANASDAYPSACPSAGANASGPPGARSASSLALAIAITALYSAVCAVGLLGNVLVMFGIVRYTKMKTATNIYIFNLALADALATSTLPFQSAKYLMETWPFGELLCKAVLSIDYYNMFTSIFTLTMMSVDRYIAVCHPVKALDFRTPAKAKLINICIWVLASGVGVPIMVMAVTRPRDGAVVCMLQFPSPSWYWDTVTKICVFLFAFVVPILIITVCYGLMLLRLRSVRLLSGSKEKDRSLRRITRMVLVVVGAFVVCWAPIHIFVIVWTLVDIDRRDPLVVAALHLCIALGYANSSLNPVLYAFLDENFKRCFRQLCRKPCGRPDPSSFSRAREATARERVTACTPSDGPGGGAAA
Work on Cc1ccc(C)c(NC(=S)NCC(c2ccccc2)N(C)C)c1 (stereo not given) yielded an EC50 of 0.535 µM. With COc1ccc(-c2nc(CN3CCC(C(=O)NC4CCCc5ccccc54)CC3)c(C)o2)cc1OC (stereo not given) the EC50 was 1.9 µM. Molecule CN1C(CC(=O)Nc2ccc(Br)cc2)c2ccccc2CC1(C)C (stereo not given) has an EC50 of 9.37 µM. Cc1ccc2c(Cl)c(Cc3ccccc3)c(=S)[nH]c2n1 was tested, and the EC50 was “inactive”. For CC1CN(C)C(C)c2c1oc1ccc(N)cc21 (stereo not given), the EC50 was “inactive”. Work on Cc1cc2[nH]c3c4ccccc4nc(C)c3c2cc1C yielded an EC50 of 7.66 µM. For Cc1cc(/C=C2/C(=O)NN(c3ccccc3)C2=O)c(C)n1-c1ccc(O)cc1, the EC50 was 8.46 µM. CCOC(=O)C1(CC2CCCCO2)CCN(Cc2ccc(OC)cc2F)CC1 (stereo not given) was tested, and the EC50 was “inactive”. In the case of Cc1cc(Cl)ccc1OCC(=O)N[C@@H](Cc1ccccc1)c1nc2ccccc2[nH]1, the EC50 is reported as “inactive”. Cc1ccc(CSCC(=O)N/N=C/c2sccc2C)cc1 was tested, and the EC50 was 6.07 µM. Work on Cc1ccc(CC(=O)NCC(c2ccco2)N(C)C)cc1C (stereo not given) yielded an EC50 of 9.05 µM. CCOC(=O)C1(CCCc2ccccc2)CCN(Cc2cnn(C)c2)CC1 showed an EC50 of 4.56 µM. Cc1ccc(OCC(=O)Nc2ccc(NC(=O)c3cccs3)cc2)c(C)c1 was tested, and the EC50 was > 10.3 µM (inactive). With CCN1CCN(S(=O)(=O)c2ccc(Cl)c(C(=O)N(CCc3ccccc3)Cc3ccccc3)c2)CC1 the EC50 was “inactive”. With CSCCCNC(=O)c1ccc(OC2CCN(CCc3ccccc3)CC2)cc1 the EC50 was “inactive”. COc1cc(C(=O)OC(C)C(=O)NCC2CCCCC2)cc(NC(=O)c2ccco2)c1OC (stereo not given) was tested, and the EC50 was > 92.5 µM (inactive). Molecule CN(C)C(CNC(=O)NC1CCCCC1)c1cccnc1 (stereo not given) has an EC50 of 1.27 µM. In the case of Cc1cccc(NC(=S)NCC(c2cccnc2)N(C)C)c1C (stereo not given), the EC50 is reported as 0.303 µM. Work on COc1ccc(C(CNC(=O)c2cncc(Br)c2)N(C)C)cc1 (stereo not given) yielded an EC50 of 2.02 µM. Work on COc1ccc(C(CNc2ncnc3sc(C)c(C)c23)N(C)C)cc1 (stereo not given) yielded an EC50 of 6.83 µM. For CN(C)C(CNC(=O)c1ccc2ccccc2c1)c1ccco1 (stereo not given), the EC50 was “inactive”. For CCCc1nc2c(=O)n(C)c(=O)nc-2n(C)n1, the EC50 was > 92.5 µM (inactive). In the case of OC(CN1CCN(C(c2ccccc2)c2ccccc2)CC1)c1ccccc1 (stereo not given), the EC50 is reported as “inactive”. COc1ccc(-c2csc(N(CCCN(C)C)C(=O)c3cccs3)n2)cc1 was tested, and the EC50 was “inactive”. CCN1CCN(Cc2ccc(NC(=O)c3ccc(C)c(NC(=O)c4c[nH]c5cc(C(F)(F)F)ccc5c4=O)c3)cc2C(F)(F)F)CC1 gave an EC50 of 9.63 µM. In the case of COc1ccc(C(CNC(=O)CCOc2ccccc2)N(C)C)cc1 (stereo not given), the EC50 is reported as “inactive”. For CN1C2C=C(N(CCc3ccccc3)C(=O)c3ccc(Cl)cc3)CC1CC2 (stereo not given), the EC50 was “inactive”. In the case of Cn1c(CN2CCN(c3cccc(Cl)c3)CC2)nc2ccccc21, the EC50 is reported as 3.34 µM. For CCOC(=O)C1(CCOc2ccccc2)CCN(Cc2cnc(C)s2)CC1, the EC50 was 7.89 µM. O=C(CSc1ccc(Cl)cc1)Nc1ccc(-c2nc3ccccc3[nH]2)cc1 was tested, and the EC50 was > 92.5 µM (inactive).
